Measurements from PubChem BioAssay (NCI).
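These data come from cells grown in 96-well plates and exposed to compound for 48 hours at five concentrations. GI50 = concentration required for 50% inhibition of growth. TGI: concentration producing complete growth inhibition.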

How the values were obtained:
Assay in all cases: inhibition of tumour cell growth, NCI panel, 48 h
[1] = tested on: TK-10 renal
[2] = tested on: SF-539 CNS
[3] = tested on: KM12 colon
[4] = tested on: MOLT-4 leukemia
[5] = tested on: MCF7 breast
[6] = tested on: NCI-H23 lung
[7] = tested on: PC-3 prostate
[8] = tested on: ACHN renal
[9] = tested on: SNB-19 CNS
[10] = tested on: 786-0 renal
[11] = tested on: M14 melanoma
[12] = tested on: HOP-62 NSCLC
[13] = tested on: OVCAR-5 ovarian
[14] = tested on: OVCAR-3 ovarian
[15] = tested on: SF-295 CNS
[16] = tested on: CCRF-CEM leukemia
[17] = tested on: HCT-116 colon
[18] = tested on: T-47D breast
[19] = tested on: EKVX NSCLC
[20] = tested on: A498 renal
[21] = tested on: SK-OV-3 ovarian
[22] = tested on: BT-549 breast
[23] = tested on: SK-MEL-28 melanoma
[24] = tested on: U251 CNS
[25] = tested on: A549 NSCLC
[26] = tested on: CAKI-1 renal
[27] = tested on: HCT-15 colon
[28] = tested on: NCI-H460 lung
[29] = tested on: SNB-75 CNS
[30] = tested on: SK-MEL-5 melanoma
[31] = tested on: SK-MEL-2 melanoma
[32] = tested on: SR leukemia
[33] = tested on: OVCAR-8 ovarian
[34] = tested on: RPMI-8226 leukemia
[35] = tested on: K-562 leukemia
[36] = tested on: COLO 205 colon
[37] = tested on: MDA-MB-435
[38] = tested on: HS 578T breast
[39] = tested on: MALME-3M melanoma
[40] = tested on: NCI/ADR-RES ovarian
[41] = tested on: UACC-257 melanoma
[42] = tested on: NCI-H522 lung
[43] = tested on: NCI-H226 lung
[44] = tested on: UACC-62 melanoma
[45] = tested on: HCC-2998 colon
[46] = tested on: DU-145 prostate
[47] = tested on: HOP-92 NSCLC
[48] = tested on: OVCAR-4 ovarian
[49] = tested on: HL-60(TB) leukemia
[50] = tested on: SF-268 CNS
[51] = tested on: SW-620 colon
[52] = tested on: RXF 393 renal
[53] = tested on: HT29 colon
[54] = tested on: SN12C renal
[55] = tested on: IGROV1 ovarian
[56] = tested on: UO-31 renal
[57] = tested on: LOX IMVI melanoma
[58] = tested on: MDA-MB-231 breast

SMILES: CC1=C(C(=O)Nc2ccc3n[nH]c(C)c3c2)C(c2ccc(C(F)(F)F)cc2)CC(=O)N1 (stereo unspecified)
- GI50 [1]: 14 µM
- TGI [1]: > 25 µM
- GI50 [2]: 7.12 µM
- TGI [2]: > 25 µM
- GI50 [3]: 14 µM
- TGI [3]: > 25 µM
- GI50 [4]: 16.4 µM
- TGI [4]: > 25 µM
- GI50 [5]: > 17.3 µM
- TGI [5]: > 25 µM
- GI50 [6]: > 17.6 µM
- TGI [6]: > 25 µM
- GI50 [7]: > 25 µM
- TGI [7]: > 25 µM
- GI50 [8]: > 25 µM
- TGI [8]: > 25 µM
- GI50 [9]: > 25 µM
- TGI [9]: > 25 µM
- GI50 [10]: > 25 µM
- TGI [10]: > 25 µM
- GI50 [11]: > 25 µM
- TGI [11]: > 25 µM
- GI50 [12]: 4.4 µM
- TGI [12]: > 25 µM
- GI50 [13]: 16.2 µM
- TGI [13]: > 25 µM
- GI50 [14]: > 25 µM
- TGI [14]: > 25 µM
- GI50 [15]: 16.4 µM
- TGI [15]: > 25 µM
- GI50 [16]: 11.8 µM
- TGI [16]: > 25 µM
- GI50 [17]: 12.5 µM
- TGI [17]: > 25 µM
- GI50 [18]: > 25 µM
- TGI [18]: > 25 µM
- GI50 [19]: 5.89 µM
- TGI [19]: > 25 µM
- GI50 [20]: 6.3 µM
- TGI [20]: > 25 µM
- GI50 [21]: 24.2 µM
- TGI [21]: > 25 µM
- GI50 [22]: 6.96 µM
- TGI [22]: > 25 µM
- GI50 [23]: > 25 µM
- TGI [23]: > 25 µM
- GI50 [24]: > 25 µM
- TGI [24]: > 25 µM
- GI50 [25]: 18.5 µM
- TGI [25]: > 25 µM
- GI50 [26]: > 18.8 µM
- TGI [26]: > 25 µM
- GI50 [27]: > 25 µM
- TGI [27]: > 25 µM
- GI50 [28]: 16.5 µM
- TGI [28]: > 25 µM
- GI50 [29]: 1.24 µM
- TGI [29]: > 18.8 µM
- GI50 [30]: > 17.7 µM
- TGI [30]: > 25 µM
- GI50 [31]: > 25 µM
- TGI [31]: > 25 µM
- GI50 [32]: > 16.4 µM
- TGI [32]: > 25 µM
- GI50 [33]: > 25 µM
- TGI [33]: > 25 µM
- GI50 [34]: > 25 µM
- TGI [34]: > 25 µM
- GI50 [35]: > 25 µM
- TGI [35]: > 25 µM
- GI50 [36]: 7.64 µM
- TGI [36]: > 19.1 µM
- GI50 [37]: > 21 µM
- TGI [37]: > 25 µM
- GI50 [38]: 0.305 µM
- TGI [38]: 19.5 µM
- GI50 [39]: 13.6 µM
- TGI [39]: > 25 µM
- GI50 [40]: > 25 µM
- TGI [40]: > 25 µM
- GI50 [41]: > 25 µM
- TGI [41]: > 25 µM
- GI50 [42]: 9.13 µM
- TGI [42]: > 21.5 µM
- GI50 [43]: 0.709 µM
- TGI [43]: > 17.7 µM
- GI50 [44]: 16 µM
- TGI [44]: > 25 µM
- GI50 [45]: > 25 µM
- TGI [45]: > 25 µM
- GI50 [46]: > 25 µM
- TGI [46]: > 25 µM
- GI50 [47]: 0.0117 µM
- TGI [47]: 1.46 µM
- GI50 [48]: 16 µM
- TGI [48]: > 25 µM
- GI50 [49]: > 25 µM
- TGI [49]: > 25 µM
- GI50 [50]: 8.59 µM
- TGI [50]: > 25 µM
- GI50 [51]: 11 µM
- TGI [51]: > 25 µM
- GI50 [52]: 6.7 µM
- TGI [52]: > 25 µM
- GI50 [53]: > 25 µM
- TGI [53]: > 25 µM
- GI50 [54]: > 25 µM
- TGI [54]: > 25 µM
- GI50 [55]: 10.3 µM
- TGI [55]: > 25 µM
- GI50 [56]: 3.91 µM
- TGI [56]: > 25 µM
- GI50 [57]: 12.8 µM
- TGI [57]: > 25 µM
- GI50 [58]: 15.9 µM
- TGI [58]: > 25 µM
